Assay results reported in patent publication US8697687B2, “Treating diseases mediated by blockade of the epithelial sodium channel with pyrazine-2-carboxamide derivatives” (Novartis AG, priority 2007, dated 2014).

target: T1, epithelial sodium channel (ENaC) (Homo sapiens, UniProt P37088+P51168+P51170); test: Short circuit current (ISC) measurements in Human Bronchial Epithelial cells, inhibition of amiloride-sensitive ISC; format: cell-based; conditions: not given
T1 construct: host or cells: primary Human Bronchial Epithelial cells (HBECs), air-liquid interface culture
T1 sequence (P37088 1-669): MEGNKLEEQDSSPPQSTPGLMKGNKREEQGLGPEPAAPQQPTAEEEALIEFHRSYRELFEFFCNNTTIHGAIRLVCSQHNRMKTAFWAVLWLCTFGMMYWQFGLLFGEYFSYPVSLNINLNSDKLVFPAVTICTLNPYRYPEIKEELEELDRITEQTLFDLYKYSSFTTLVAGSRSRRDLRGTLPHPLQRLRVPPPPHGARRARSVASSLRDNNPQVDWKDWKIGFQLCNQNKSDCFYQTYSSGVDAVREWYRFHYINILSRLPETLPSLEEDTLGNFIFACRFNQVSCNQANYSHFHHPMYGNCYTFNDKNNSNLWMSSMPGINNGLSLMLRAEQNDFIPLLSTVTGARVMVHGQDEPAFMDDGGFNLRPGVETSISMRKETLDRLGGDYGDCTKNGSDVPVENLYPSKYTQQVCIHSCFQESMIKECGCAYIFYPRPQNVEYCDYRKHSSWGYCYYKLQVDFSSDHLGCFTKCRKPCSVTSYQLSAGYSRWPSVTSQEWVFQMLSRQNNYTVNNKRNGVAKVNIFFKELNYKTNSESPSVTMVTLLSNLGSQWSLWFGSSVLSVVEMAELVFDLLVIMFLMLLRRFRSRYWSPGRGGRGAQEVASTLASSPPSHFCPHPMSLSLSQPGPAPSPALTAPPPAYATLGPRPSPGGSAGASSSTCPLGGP
T1 sequence (P51168 1-640): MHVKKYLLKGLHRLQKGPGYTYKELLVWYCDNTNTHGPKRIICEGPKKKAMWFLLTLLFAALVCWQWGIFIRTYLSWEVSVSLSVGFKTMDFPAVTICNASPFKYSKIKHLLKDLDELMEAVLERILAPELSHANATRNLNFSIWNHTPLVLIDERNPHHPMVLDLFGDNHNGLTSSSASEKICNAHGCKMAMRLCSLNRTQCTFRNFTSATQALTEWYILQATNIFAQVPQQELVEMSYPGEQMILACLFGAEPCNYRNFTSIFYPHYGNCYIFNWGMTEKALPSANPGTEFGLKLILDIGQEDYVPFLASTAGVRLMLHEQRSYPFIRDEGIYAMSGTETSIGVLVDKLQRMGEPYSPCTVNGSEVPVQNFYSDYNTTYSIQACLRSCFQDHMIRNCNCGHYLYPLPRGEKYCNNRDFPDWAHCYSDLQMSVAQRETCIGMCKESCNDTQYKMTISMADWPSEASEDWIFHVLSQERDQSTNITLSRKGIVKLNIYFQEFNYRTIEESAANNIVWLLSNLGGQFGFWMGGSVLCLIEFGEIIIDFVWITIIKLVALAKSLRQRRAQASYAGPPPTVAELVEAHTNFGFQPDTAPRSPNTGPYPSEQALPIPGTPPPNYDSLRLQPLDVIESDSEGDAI
T1 sequence (P51170 1-649): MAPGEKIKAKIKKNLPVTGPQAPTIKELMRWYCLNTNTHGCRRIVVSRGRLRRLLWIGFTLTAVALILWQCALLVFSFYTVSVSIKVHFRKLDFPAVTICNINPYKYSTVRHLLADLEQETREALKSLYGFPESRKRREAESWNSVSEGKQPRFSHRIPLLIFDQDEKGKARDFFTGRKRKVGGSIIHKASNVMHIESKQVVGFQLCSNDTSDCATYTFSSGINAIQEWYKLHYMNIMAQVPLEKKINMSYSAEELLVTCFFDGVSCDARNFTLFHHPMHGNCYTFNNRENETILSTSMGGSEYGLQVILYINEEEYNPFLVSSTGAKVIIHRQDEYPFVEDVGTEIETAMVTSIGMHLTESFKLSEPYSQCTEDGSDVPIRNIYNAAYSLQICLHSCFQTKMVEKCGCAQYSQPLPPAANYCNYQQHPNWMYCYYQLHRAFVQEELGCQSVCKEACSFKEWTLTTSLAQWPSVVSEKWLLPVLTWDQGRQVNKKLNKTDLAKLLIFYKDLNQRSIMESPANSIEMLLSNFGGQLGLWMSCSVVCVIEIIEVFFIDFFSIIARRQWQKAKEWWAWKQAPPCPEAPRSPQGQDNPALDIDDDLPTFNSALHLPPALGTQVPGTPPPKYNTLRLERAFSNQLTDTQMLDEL
Experimental: Compounds of formula (I) and their pharmaceutically acceptable salts, hereinafter referred to alternatively as “agents of the invention”, are useful as pharmaceuticals. In particular, the compounds have good ENaC blocker activity and may be tested in the following assays.
Human Bronchial Epithelial cells (HBECs) (Cambrex) were cultured under air-liquid interface conditions to provide a well differentiated mucociliary phenotype.
HBECs were cultured using a modification of the method described by Gray and colleagues (Gray et al., 1996). Cells were seeded in plastic T-162 flasks and were grown in bronchial epithelial cell growth medium (BEGM; Cambrex) supplemented with bovine pituitary extract (52 μg/mL), hydrocortisone (0.5 μg/mL), human recombinant epidermal growth factor (0.5 ng/mL), epinephrine (0.5 μg/mL), transferrin (10 μg/mL), insulin (5 μg/mL), retinoic acid (0.1 μg/mL), triiodothyronine ([…]), gentamycin (50 μg/mL) and amphotericin B (50 ng/mL). Medium was changed every 48 hours until cells were 90% confluent. Cells were then passaged and seeded (8.25×10^5 cells/insert) on polycarbonate Snapwell inserts (Costar) in differentiation media containing 50% DMEM in BEGM with the same supplements as above but without triiodothyronine and a final retinoic acid concentration of 50 nM (all-trans retinoic acid). Cells were maintained submerged for the first 7 days in culture, after which time they were exposed to an apical air interface for the remainder of the culture period. At this time, media was changed to DMEM:F12 media containing 2% v/v Ultroser G for the remainder of culture. Amphotericin B was removed from all media 3 feeds prior to use in the Using Chambers. Cells were used between days 7 and 21 after establishment of the apical-air interface. At all stages of culture, cells were maintained at 37° C. in 5% CO2 in an air incubator.
Short Circuit Current (ISC) Measurements
Snapwell inserts were mounted in Vertical Diffusion Chambers (Costar) and were bathed with continuously gassed Ringer solution (5% CO2 in O2; pH 7.4) maintained at 37° C. containing (in mM): 120 NaCl, 25 NaHCO3, 3.3 KH2PO4, 0.8 K2HPO4, 1.2 CaCl2, 1.2 MgCl2, and 10 glucose. The solution osmolarity was between 280 and 300 mOsmol/kg H2O for all physiological salt solutions used. Cells were voltage clamped to 0 mV (model EVC4000; WPI). RT was measured by applying a 1- or 2-mV pulse at 30-s intervals and calculating RT by Ohm's law. Data were recorded using a PowerLab workstation (ADInstruments).
Test compounds were prepared as a 10 mM stock solution in DMSO (95%). Serial 3-fold dilutions were freshly prepared in an appropriate vehicle (distilled H2O or Ringers solution). The initial concentration was added to the apical chamber as a 1000× concentrate in 5 μL, resulting in a final 1× concentration the 5 mL volume of the Ussing chamber. Subsequent additions of compound were added in a 3.3 μL volume of the 1000× serially diluted stock solution. At the completion of the concentration-response experiment, amiloride (10 μM) was added into the apical chamber to enable the total amiloride-sensitive current to be measured. An amiloride control IC50 was established at the start of each experiment.
Results are expressed as the mean % inhibition of the amiloride-sensitive ISC. Concentration-response curves were plotted and IC50 values generated using GraphPad Prism 3.02. Cell inserts were typically run in duplicate and the IC50 calculated on the mean % inhibition data.

| Structure (SMILES) | IC50 [µM] |
| --- | --- |
| CC(C)(C)c1ccc(OCCn2ccc3c(C(=O)N4CCC5(CC4)CN/C(=N\C(=O)c4nc(Cl)c(N)nc4N)N5)cccc32)cc1 [Example 86, 3,5-Diamino-6-chloro-pyrazine-2-carboxylic acid [8-{1-[2-(4-tert-butyl-phenoxy)-ethyl]-1H-indole-4-carbonyl}-1,3,8-triaza-spiro[4.5]dec-(2E)-ylidene]-amide] | 0.008 |
| Nc1nc(N)c(C(=O)/N=C2\NCC3(CCN(C(=O)c4ccc(C(=O)N5CCC6(CC5)CN/C(=N\C(=O)c5nc(Cl)c(N)nc5N)N6)cc4)CC3)N2)nc1Cl [Example 96] | 0.037 |

same assay, conditions: inhibition of the amiloride-sensitive ISC; Human Bronchial Epithelial cells (HBECs) at air-liquid interface; compound added to apical chamber; read-out: IC50

| Structure (SMILES) | IC50 [µM] |
| --- | --- |
| Cc1[nH]c2ccc(CC(=O)N3CCC4(CC3)CN/C(=N\C(=O)c3nc(Cl)c(N)nc3N)N4)cc2c1C [Example 48, 3,5-Diamino-6-chloro-pyrazine-2-carboxylic acid [8-[2-(2,3-dimethyl-1H-indol-5-yl)-acetyl]-1,3,8-triaza-spiro[4.5]dec-(2E)-ylidene]-amide] | 0.0165 |
| Cc1nc(-c2ccccc2)ncc1C(=O)N1CCC2(CC1)CN/C(=N\C(=O)c1nc(Cl)c(N)nc1N)N2 [Example 58, 3,5-Diamino-6-chloro-pyrazine-2-carboxylic acid [8-(4-methyl-2-phenyl-pyrimidine-5-carbonyl)-1,3,8-triaza-spiro[4.5]dec-(2E)-ylidene]-amide] | 0.143 |
| COc1cc(OC)nc(COc2ccc(C(=O)N3CCC4(CC3)CN/C(=N\C(=O)c3nc(Cl)c(N)nc3N)N4)cc2)n1 [Example 61, 3,5-Diamino-6-chloro-pyrazine-2-carboxylic acid [8-[4-(4,6-dimethoxy-pyrimidin-2-ylmethoxy)-benzoyl]-1,3,8-triaza-spiro[4.5]dec-(2E)-ylidene]-amide] | 0.346 |
| CC(C)NC(=O)Nc1cc(C(=O)N2CCC3(CC2)CN/C(=N\C(=O)c2nc(Cl)c(N)nc2N)N3)ccn1 [Example 62, 3,5-Diamino-6-chloro-pyrazine-2-carboxylic acid [8-[2-(3-isopropyl-ureido)-pyridine-4-carbonyl]-1,3,8-triaza-spiro[4.5]dec-(2E)-ylidene]-amide] | 0.013 |
| CC(C)NC(=O)Nc1ccc(C(=O)N2CCC3(CC2)CN/C(=N\C(=O)c2nc(Cl)c(N)nc2N)N3)cc1 [Example 64, 3,5-Diamino-6-chloro-pyrazine-2-carboxylic acid [8-[4-(3-isopropyl-ureido)-benzoyl]-1,3,8-triaza-spiro[4.5]dec-(2E)-ylidene]-amide] | 0.0255 |
| CC(C)NC(=O)Nc1ccc(C(=O)N2CCC3(CC2)CN/C(=N\C(=O)c2nc(Cl)c(N)nc2N)N3)cn1 [Example 65, 3,5-Diamino-6-chloro-pyrazine-2-carboxylic acid [8-[6-(3-isopropyl-ureido)-pyridine-3-carbonyl]-1,3,8-triaza-spiro[4.5]dec-(2E)-ylidene]-amide] | 0.0395 |
| Nc1nc(N)c(C(=O)/N=C2\NCC3(CCN(C(=O)CCc4ccc(OCc5ccncc5)cc4)CC3)N2)nc1Cl [Example 70, 3,5-Diamino-6-chloro-pyrazine-2-carboxylic acid [8-{3-[4-(pyridin-4-ylmethoxy)-phenyl]-propionyl}-1,3,8-triaza-spiro[4.5]dec-(2E)-ylidene]-amide] | 0.074 |
| CC(C)(C)OC(=O)COc1ccc(CCC(=O)N2CCC3(CC2)CN/C(=N\C(=O)c2nc(Cl)c(N)nc2N)N3)cc1 [Example 71, [4-(3-{2-[(E)-3,5-Diamino-6-chloro-pyrazine-2-carbonylimino]-1,3,8-triaza-spiro[4.5]dec-8-yl}-3-oxo-propyl)-phenoxy]-acetic acid tert-butyl] | 0.042 |
| CC(C)(C)OC(=O)c1ccc(C(=O)N2CCC3(CC2)CN/C(=N\C(=O)c2nc(Cl)c(N)nc2N)N3)cc1 [Example 76, 4-{2-[(E)-3,5-Diamino-6-chloro-pyrazine-2-carbonylimino]-1,3,8-triaza-spiro[4.5]decane-8-carbonyl}-benzoic acid tert-butyl ester] | 0.012 |
| CCN(CC)C(=O)Cn1ccc2c(C(=O)N3CCC4(CC3)CN/C(=N\C(=O)c3nc(Cl)c(N)nc3N)N4)cccc21 [Example 91, 3,5-Diamino-6-chloro-pyrazine-2-carboxylic acid [8-(1-diethylcarbamoylmethyl-1H-indole-4-carbonyl)-1,3,8-triaza-spiro[4.5]dec-(2E)-ylidene]-amide] | 0.0885 |
| Nc1nc(N)c(C(=O)/N=C2\NCC3(CCN(C(=O)[C@H]4CC[C@H](C(=O)N5CCC6(CC5)CN/C(=N\C(=O)c5nc(Cl)c(N)nc5N)N6)CC4)CC3)N2)nc1Cl [Example 94] | 0.009 |
| Nc1nc(N)c(C(=O)/N=C2\NCC3(CCN(C(=O)c4cccc5[nH]ccc45)CC3)N2)nc1Cl [Example 99, 3,5-Diamino-6-chloro-pyrazine-2-carboxylic acid [8-(1H-indole-4-carbonyl)-1,3,8-triaza-spiro[4.5]dec-(2E)-ylidene]-amide] | 0.019 |
